According to PubChem BioAssay (NCI):
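1) Cells in 96-well plates. 2) Compound, 48 h, 5 concentrations. 3) Linear interpolation between surrounding doses. 4) Unreached endpoint = highest concentration. GI50: concentration for 50% inhibition of growth. TGI: total growth inhibition.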

Tests used:
Test in all cases: DTP human tumour cell line panel, 48 h
IGROV1 ovarian = system: IGROV1 ovarian
PC-3 prostate = system: PC-3 prostate
SK-MEL-28 melanoma = system: SK-MEL-28 melanoma
HCT-15 colon = system: HCT-15 colon
OVCAR-3 ovarian = system: OVCAR-3 ovarian
HOP-62 NSCLC = system: HOP-62 NSCLC
NCI/ADR-RES ovarian = system: NCI/ADR-RES ovarian
HCC-2998 colon = system: HCC-2998 colon
U251 CNS = system: U251 CNS
MALME-3M melanoma = system: MALME-3M melanoma
MDA-MB-435 = system: MDA-MB-435
OVCAR-4 ovarian = system: OVCAR-4 ovarian
SW-620 colon = system: SW-620 colon
CCRF-CEM leukemia = system: CCRF-CEM leukemia
COLO 205 colon = system: COLO 205 colon
SF-295 CNS = system: SF-295 CNS
T-47D breast = system: T-47D breast
BT-549 breast = system: BT-549 breast
K-562 leukemia = system: K-562 leukemia
A549 NSCLC = system: A549 NSCLC
NCI-H23 lung = system: NCI-H23 lung
HCT-116 colon = system: HCT-116 colon
KM12 colon = system: KM12 colon
DU-145 prostate = system: DU-145 prostate
RXF 393 renal = system: RXF 393 renal
MCF7 breast = system: MCF7 breast
EKVX NSCLC = system: EKVX NSCLC
UACC-257 melanoma = system: UACC-257 melanoma
HT29 colon = system: HT29 colon
OVCAR-5 ovarian = system: OVCAR-5 ovarian
SK-MEL-5 melanoma = system: SK-MEL-5 melanoma
786-0 renal = system: 786-0 renal
HS 578T breast = system: HS 578T breast
UACC-62 melanoma = system: UACC-62 melanoma
SR leukemia = system: SR leukemia
SN12C renal = system: SN12C renal
SK-OV-3 ovarian = system: SK-OV-3 ovarian
NCI-H226 lung = system: NCI-H226 lung
TK-10 renal = system: TK-10 renal
LOX IMVI melanoma = system: LOX IMVI melanoma
ACHN renal = system: ACHN renal
SF-268 CNS = system: SF-268 CNS
NCI-H460 lung = system: NCI-H460 lung
OVCAR-8 ovarian = system: OVCAR-8 ovarian
SF-539 CNS = system: SF-539 CNS
M14 melanoma = system: M14 melanoma
HOP-92 NSCLC = system: HOP-92 NSCLC
RPMI-8226 leukemia = system: RPMI-8226 leukemia
NCI-H522 lung = system: NCI-H522 lung
SNB-19 CNS = system: SNB-19 CNS
CAKI-1 renal = system: CAKI-1 renal
SK-MEL-2 melanoma = system: SK-MEL-2 melanoma
MDA-MB-231 breast = system: MDA-MB-231 breast
A498 renal = system: A498 renal
UO-31 renal = system: UO-31 renal
HL-60(TB) leukemia = system: HL-60(TB) leukemia
SNB-75 CNS = system: SNB-75 CNS
MOLT-4 leukemia = system: MOLT-4 leukemia

COc1cc(C(=O)c2c(-c3ccccc3)oc3c(OC)cccc23)cc(OC)c1O
GI50 (IGROV1 ovarian): 654 nM | TGI (IGROV1 ovarian): > 100000 nM | GI50 (PC-3 prostate): 450 nM | TGI (PC-3 prostate): > 37200 nM | GI50 (SK-MEL-28 melanoma): 4090 nM | TGI (SK-MEL-28 melanoma): > 100000 nM | GI50 (HCT-15 colon): 455 nM | TGI (HCT-15 colon): > 100000 nM | GI50 (OVCAR-3 ovarian): 302 nM | TGI (OVCAR-3 ovarian): 1660 nM | GI50 (HOP-62 NSCLC): 641 nM | TGI (HOP-62 NSCLC): > 100000 nM | GI50 (NCI/ADR-RES ovarian): 454 nM | TGI (NCI/ADR-RES ovarian): > 100000 nM | GI50 (HCC-2998 colon): 1960 nM | TGI (HCC-2998 colon): > 100000 nM | GI50 (U251 CNS): 507 nM | TGI (U251 CNS): > 100000 nM | GI50 (MALME-3M melanoma): 509 nM | TGI (MALME-3M melanoma): > 100000 nM | GI50 (MDA-MB-435): 162 nM | TGI (MDA-MB-435): 459 nM | GI50 (OVCAR-4 ovarian): 2820 nM | TGI (OVCAR-4 ovarian): > 100000 nM | GI50 (SW-620 colon): 454 nM | TGI (SW-620 colon): > 100000 nM | GI50 (CCRF-CEM leukemia): 414 nM | TGI (CCRF-CEM leukemia): > 100000 nM | GI50 (COLO 205 colon): 2050 nM | TGI (COLO 205 colon): 5230 nM | GI50 (SF-295 CNS): 569 nM | TGI (SF-295 CNS): > 21500 nM | GI50 (T-47D breast): 1200 nM | TGI (T-47D breast): > 100000 nM | GI50 (BT-549 breast): 1190 nM | TGI (BT-549 breast): 7310 nM | GI50 (K-562 leukemia): 328 nM | TGI (K-562 leukemia): > 100000 nM | GI50 (A549 NSCLC): 751 nM | TGI (A549 NSCLC): > 100000 nM | GI50 (NCI-H23 lung): 864 nM | TGI (NCI-H23 lung): > 100000 nM | GI50 (HCT-116 colon): 563 nM | TGI (HCT-116 colon): > 100000 nM | GI50 (KM12 colon): 450 nM | TGI (KM12 colon): > 51200 nM | GI50 (DU-145 prostate): 554 nM | TGI (DU-145 prostate): > 100000 nM | GI50 (RXF 393 renal): 313 nM | TGI (RXF 393 renal): 2000 nM | GI50 (MCF7 breast): 351 nM | TGI (MCF7 breast): > 100000 nM | GI50 (EKVX NSCLC): 876 nM | TGI (EKVX NSCLC): > 100000 nM | GI50 (UACC-257 melanoma): 63500 nM | TGI (UACC-257 melanoma): > 100000 nM | GI50 (HT29 colon): 3150 nM | TGI (HT29 colon): > 33700 nM | GI50 (OVCAR-5 ovarian): 3220 nM | TGI (OVCAR-5 ovarian): > 100000 nM | GI50 (SK-MEL-5 melanoma): 651 nM | TGI (SK-MEL-5 melanoma): 8620 nM | GI50 (786-0 renal): 630 nM | TGI (786-0 renal): 14300 nM | GI50 (HS 578T breast): 405 nM | GI50 (UACC-62 melanoma): 583 nM | TGI (UACC-62 melanoma): > 100000 nM | GI50 (SR leukemia): 339 nM | TGI (SR leukemia): 53000 nM | GI50 (SN12C renal): 1460 nM | TGI (SN12C renal): > 100000 nM | GI50 (SK-OV-3 ovarian): 765 nM | TGI (SK-OV-3 ovarian): > 100000 nM | GI50 (NCI-H226 lung): 3100 nM | TGI (NCI-H226 lung): > 100000 nM | GI50 (TK-10 renal): 15000 nM | TGI (TK-10 renal): > 81900 nM | GI50 (LOX IMVI melanoma): 608 nM | TGI (LOX IMVI melanoma): > 100000 nM | GI50 (ACHN renal): 664 nM | TGI (ACHN renal): > 100000 nM | GI50 (SF-268 CNS): 1040 nM | TGI (SF-268 CNS): > 100000 nM | GI50 (NCI-H460 lung): 401 nM | TGI (NCI-H460 lung): > 22100 nM | GI50 (OVCAR-8 ovarian): 631 nM | TGI (OVCAR-8 ovarian): > 100000 nM | GI50 (SF-539 CNS): 311 nM | TGI (SF-539 CNS): 2640 nM | GI50 (M14 melanoma): 351 nM | TGI (M14 melanoma): > 100000 nM | GI50 (HOP-92 NSCLC): 276 nM | TGI (HOP-92 NSCLC): 2250 nM | GI50 (RPMI-8226 leukemia): 403 nM | TGI (RPMI-8226 leukemia): 5750 nM | GI50 (NCI-H522 lung): 269 nM | TGI (NCI-H522 lung): 5180 nM | GI50 (SNB-19 CNS): 1760 nM | TGI (SNB-19 CNS): > 100000 nM | GI50 (CAKI-1 renal): 404 nM | TGI (CAKI-1 renal): 26700 nM | GI50 (SK-MEL-2 melanoma): 2280 nM | TGI (SK-MEL-2 melanoma): > 100000 nM | GI50 (MDA-MB-231 breast): 1500 nM | TGI (MDA-MB-231 breast): 16100 nM | GI50 (A498 renal): 378 nM | TGI (A498 renal): 3530 nM | GI50 (UO-31 renal): 648 nM | TGI (UO-31 renal): > 100000 nM | GI50 (HL-60(TB) leukemia): 284 nM | TGI (HL-60(TB) leukemia): 1020 nM | GI50 (SNB-75 CNS): 184 nM | TGI (SNB-75 CNS): 605 nM | GI50 (MOLT-4 leukemia): 605 nM | TGI (MOLT-4 leukemia): > 100000 nM
